From ChEMBL document CHEMBL3046037, “Genetic analysis and molecular characterisation of laboratory and field mutants of Botryotinia fuckeliana (Botrytis cinerea) resistant to QoI fungicides” (Pest Manag Sci, 2012) come the findings set out here.

Assay [1] deals with Botrytis cinerea. Put plainly: Antifungal activity against Botryotinia fuckeliana SAS56 assessed as complete inhibition of colony growth at […]. In kind it is functional, organism-based.
Assay [2] has as its system Botrytis cinerea. Put plainly: Antifungal activity against Botryotinia fuckeliana SAS56 assessed as inhibition of colony growth. The format is functional, organism-based.
The test system of assay [3] is Botrytis cinerea. The assay can be described thus: Antifungal activity against QoI fungicide-resistant Botryotinia fuckeliana lab isolates assessed as inhibition of colony growth. The format is functional, organism-based.
The subject of assay [4] is Botrytis cinerea. Put plainly: Resistance index, ratio of EC50 for QoI fungicide-resistant Botryotinia fuckeliana field isolates expressing cytb G143A mutant gene to EC50 for Botryotinia fuckeliana SAS56. In kind it is functional.
In assay [5] the test system is Botrytis cinerea. Put plainly: Antifungal activity against Botryotinia fuckeliana SAS405 assessed as inhibition of colony growth. The format is functional, organism-based.
Assay [6] concerns Botrytis cinerea. The assay can be described thus: Antifungal activity against QoI fungicide-resistant Botryotinia fuckeliana field isolates expressing cytb G143A mutant gene assessed as inhibition of colony growth. In kind it is functional, organism-based.
For assay [7], the system named is Botrytis cinerea. The assay can be described thus: Resistance index, ratio of EC50 for QoI fungicide-resistant Botryotinia fuckeliana lab isolates to EC50 for Botryotinia fuckeliana SAS405. In kind it is functional.
The test system of assay [8] is Botrytis cinerea. Put plainly: Resistance index, ratio of EC50 for QoI fungicide-resistant Botryotinia fuckeliana field isolates expressing cytb G143A mutant gene to EC50 for Botryotinia fuckeliana SAS405. In kind it is functional.
Assay [9] has as its system Botrytis cinerea. The assay can be described thus: Resistance index, ratio of EC50 for QoI fungicide-resistant Botryotinia fuckeliana lab isolates to EC50 for Botryotinia fuckeliana SAS56. In kind it is functional.
In assay [10] the test system is Botrytis cinerea. Put plainly: Antifungal activity against Botryotinia fuckeliana SAS56 assessed as complete inhibition of colony growth at 3 mg/ml. In kind it is functional, organism-based.

Converted amounts (≈) assume the structure as drawn. The source made the active and inactive calls. The calls are words filed in the database; no cut-off is given here. Where only a bound is given, the exact number is not on record here.

For the molecule `CO/N=C(\C(=O)OC)c1ccccc1CO/N=C(\C)c1cccc(C(F)(F)F)c1`, in the assay on Botrytis cinerea [1], the “growth inhibition (GI)” value was “Active”. Further, the EC50 with Botrytis cinerea [2] was under 0.01 µg/mL; in the assay with Botrytis cinerea [3], over 100 µg/mL; with Botrytis cinerea [5] it was 0.01 µg/mL (≈ 0.0245 µM); in the assay on Botrytis cinerea [6], over 100 µg/mL. Also, the MIC in the assay with Botrytis cinerea [2] and in the assay on Botrytis cinerea [5] was 1 µg/mL (≈ 2.45 µM) in each case. Moreover, the “Ratio EC50” value in the assay on Botrytis cinerea [4], in the assay on Botrytis cinerea [7], with Botrytis cinerea [8] and in the assay with Botrytis cinerea [9] was over 1000 each time.

For `CO/C=C(/C(=O)OC)c1ccccc1Oc1cc(Oc2ccccc2C#N)ncn1` [AZOXYSTROBIN], the EC50 with Botrytis cinerea [2] and in the assay on Botrytis cinerea [5] was 0.1 µg/mL (≈ 0.248 µM) throughout. Further, the “growth inhibition (GI)” value in the assay with Botrytis cinerea [10] was “Active”.

Turning to `CO/N=C(/C(=O)OC)c1ccccc1COc1ccccc1C` [KRESOXIM-METHYL], the EC50 with Botrytis cinerea [2] and in the assay with Botrytis cinerea [5] was 0.01 µg/mL (≈ 0.0319 µM) in each case. In the assay on Botrytis cinerea [10], the “growth inhibition (GI)” value was “Active”.
